Experimental data from ChEMBL document CHEMBL1138029, “Identification of neutral 4-O-alkyl quinolone nonpeptide GnRH receptor antagonists” (Bioorg Med Chem Lett, 2004).
pIC50: −log10 of the molar value.

Assays:
[1] = target: T1, Gonadotropin-releasing hormone receptor (Homo sapiens, UniProt P30968); experiment: Inhibition of GnRH-stimulated phosphatidyl inositol hydrolysis in CHO cells expressing GnRH receptor; type: functional, cell-based
T1 sequence (P30968 whole entry): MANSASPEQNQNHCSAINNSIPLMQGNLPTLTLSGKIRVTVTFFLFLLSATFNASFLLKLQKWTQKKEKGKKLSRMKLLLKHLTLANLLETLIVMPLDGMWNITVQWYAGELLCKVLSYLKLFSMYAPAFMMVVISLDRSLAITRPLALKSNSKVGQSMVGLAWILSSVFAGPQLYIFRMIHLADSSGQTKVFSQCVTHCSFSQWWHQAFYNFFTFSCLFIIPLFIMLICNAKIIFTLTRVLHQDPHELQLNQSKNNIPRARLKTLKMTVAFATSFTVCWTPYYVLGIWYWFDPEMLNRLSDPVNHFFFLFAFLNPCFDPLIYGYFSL

[2] = target: T1, Gonadotropin-releasing hormone receptor; experiment: Binding affinity towards human gonadotropin releasing hormone receptor expressed in CHO cells was determined by using [125I]-buserelin as radioligand; type: cell-based

pIC50 [1]	pIC50 [2]	Structure (SMILES)
9.05	–	Cc1cc(-c2c(OCC[C@@H]3CCN3)c3cc(C(=O)Nc4ccncn4)c(Cl)cc3[nH]c2=O)cc(C)c1C
8.48	9.22	Cc1cc(-c2c(OCCC3CCCO3)c3cc(C(=O)Nc4ccncn4)c(Cl)cc3[nH]c2=O)cc(C)c1C (stereo not given)
5.94	6.61	Cc1cc(-c2c(O)nc3cc(Cl)c(C(=O)Nc4cnsn4)cc3c2OCCC2CCCC2)cc(C)c1C
7.96	8.85	Cc1cc(-c2c(O)nc3cc(Cl)c(C(=O)Nc4cnsn4)cc3c2OCC[C@H]2CCC(=O)N2C)cc(C)c1C
7.17	9.22	Cc1cc(-c2c(O)nc3cc(Cl)c(C(=O)Nc4cnsn4)cc3c2OCCC2OCCO2)cc(C)c1C
7.74	8.70	Cc1cc(-c2c(O)nc3cc(Cl)c(C(=O)Nc4ccncn4)cc3c2OCC[C@@H]2CCC[C@H](C(F)(F)F)N2)cc(C)c1C
9.10	9.49	Cc1cc(-c2c(OCC[C@@H]3CCN3)c3cc(C(=O)Nc4cnsn4)c(Cl)cc3[nH]c2=O)cc(C)c1C
8.66	9.10	Cc1cc(-c2c(O)nc3cc(Cl)c(C(=O)Nc4ccncn4)cc3c2OCC[C@@H]2CCCN2)cc(C)c1C
7.31	9.05	Cc1cc(-c2c(O)nc3cc(Cl)c(C(=O)Nc4cnsn4)cc3c2OCC[C@H]2CCO2)cc(C)c1C
9.15	9.52	Cc1cc(-c2c(O)nc3cc(Cl)c(C(=O)Nc4cnsn4)cc3c2OCC[C@H]2CCC(=O)N2)cc(C)c1C
7.74	8.70	Cc1cc(-c2c(O)nc3cc(Cl)c(C(=O)Nc4ccncn4)cc3c2OCC[C@@H]2CCC[C@H](C(F)(F)F)N2C)cc(C)c1C
7.49	9.15	Cc1cc(-c2c(OCCC3COCCN3)c3cc(C(=O)Nc4cnsn4)c(Cl)cc3[nH]c2=O)cc(C)c1C (stereo not given)
8.80	9.26	Cc1cc(-c2c(OCC[C@@H]3CCCCN3)c3cc(C(=O)Nc4cnsn4)c(Cl)cc3[nH]c2=O)cc(C)c1C
8.89	10.00	Cc1cc(-c2c(OCC[C@H]3CC(=O)N3)c3cc(C(=O)Nc4cnsn4)c(Cl)cc3[nH]c2=O)cc(C)c1C
8.66	–	Cc1cc(-c2c(OCC[C@@H]3CCCCN3)c3cc(C(=O)Nc4ccncn4)c(Cl)cc3[nH]c2=O)cc(C)c1C

Structure (SMILES)	pIC50 [1]	pIC50 [2]
Cc1cc(-c2c(OCCC3CC4CCN3CC4)c3cc(C(=O)Nc4cnsn4)c(Cl)cc3[nH]c2=O)cc(C)c1C (stereo not given)	8.24	9.22
